From PubChem BioAssay AID328 (DTP/NCI, 2004)
Values joined by “and” are separate entries in the source; they are usually repeats but may differ in a detail not shown here. Equal entries are not always repeated. Toxic doses and inconclusive results are not listed.

Test system: BDF1 mice, P388 leukemia ip, median survival T/C
Experiment: NCI In Vivo Anticancer Drug Screen. Data for tumor model P388 Leukemia (intraperitoneal) in B6D2F1 (BDF1) mice
Conditions: endpoint: median survival time, higher = longer survival
How it was run: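 Steps: implant the tumour, treat one group with compound and another with vehicle, record survival, then divide treated by control.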

[1] = dose: 6.25 mg/kg/injection, schedule: Q01DX009 (ip), vehicle: saline
[2] = dose: 12.5 mg/kg/injection, schedule: Q01DX009 (ip), vehicle: saline
[3] = dose: 25.0 mg/kg/injection, schedule: Q01DX009 (ip), vehicle: saline
[4] = dose: 50.0 mg/kg/injection, schedule: Q01DX009 (ip), vehicle: saline
[5] = dose: 100.0 mg/kg/injection, schedule: Q01DX009 (ip), vehicle: other
[6] = dose: 100.0 mg/kg/injection, schedule: Q01DX009 (ip), vehicle: saline
[7] = dose: 100.0 mg/kg/injection, schedule: Q04DX003 (ip), vehicle: saline
[8] = dose: 200.0 mg/kg/injection, schedule: Q01DX009 (ip), vehicle: saline
[9] = dose: 200.0 mg/kg/injection, schedule: Q04DX003 (ip), vehicle: saline
[10] = dose: 400.0 mg/kg/injection, schedule: Q04DX003 (ip), vehicle: saline
[11] = dose: 100.0 mg/kg/injection, schedule: Q01DX009 (ip), vehicle: Klucel (hydroxypropylcellulose) (HPC)
[12] = dose: 100.0 mg/kg/injection, schedule: Q04DX003 (ip), vehicle: Klucel (hydroxypropylcellulose) (HPC)
[13] = dose: 50.0 mg/kg/injection, schedule: Q01DX009 (ip), vehicle: saline with Tween-80
[14] = dose: 100.0 mg/kg/injection, schedule: Q01DX009 (ip), vehicle: saline with Tween-80

`O=C1c2ccccc2C(=O)c2c(NCCNCCO)ccc(NCCNCCO)c21` was tested, and the T/C (dose: 2.0 mg/kg/injection, schedule: Q01DX009 (ip), vehicle: water) was 163 % of control, the T/C (dose: 3.12 mg/kg/injection, schedule: Q01DX009 (ip), vehicle: saline) was 262 % of control and 403 % of control and 239 % of control and the T/C (dose: 4.0 mg/kg/injection, schedule: Q01DX009 (ip), vehicle: water) was 111 % of control. The T/C (dose: 4.0 mg/kg/injection, schedule: Q04DX003 (ip), vehicle: saline with Tween-80) was 154 % of control, the T/C [1] was 502 % of control and 202 % of control and 189 % of control and the T/C (dose: 8.0 mg/kg/injection, schedule: Q01DX009 (ip), vehicle: water) was 96 % of control. For the same compound, the T/C (dose: 8.0 mg/kg/injection, schedule: Q04DX003 (ip), vehicle: saline with Tween-80) was 165 % of control, the T/C [2] was 503 % of control and 517 % of control and the T/C (dose: 13.0 mg/kg/injection, schedule: Q04DX003 (ip), vehicle: saline + alcohol) was 222 % of control. For the same compound, the T/C (dose: 16.0 mg/kg/injection, schedule: Q04DX003 (ip), vehicle: saline with Tween-80) was 165 % of control, the T/C (dose: 21.6 mg/kg/injection, schedule: Q04DX003 (ip), vehicle: saline + alcohol) was 321 % of control and the T/C [3] was 517 % of control. For the same compound, the T/C (dose: 32.0 mg/kg/injection, schedule: Q04DX003 (ip), vehicle: saline with Tween-80) was 192 % of control, the T/C (dose: 36.0 mg/kg/injection, schedule: Q04DX003 (ip), vehicle: saline + alcohol) was 311 % of control and the T/C [4] was 74 % of control. For the same compound, the T/C (dose: 60.0 mg/kg/injection, schedule: Q04DX003 (ip), vehicle: saline + alcohol) was 201 % of control and the T/C (dose: 64.0 mg/kg/injection, schedule: Q04DX003 (ip), vehicle: saline with Tween-80) was 274 % of control.
In the case of `CCOC(=O)C(C(C)=O)C(=O)OCC`, the T/C (dose: 25.0 mg/kg/injection, schedule: Q04DX003 (ip), vehicle: other) was 90 % of control, the T/C (dose: 50.0 mg/kg/injection, schedule: Q01DX009 (ip), vehicle: other) was 113 % of control and the T/C (dose: 50.0 mg/kg/injection, schedule: Q04DX003 (ip), vehicle: other) was 99 % of control. For the same compound, the T/C [5] was 100 % of control, the T/C (dose: 100.0 mg/kg/injection, schedule: Q04DX003 (ip), vehicle: other) was 99 % of control and the T/C (dose: 200.0 mg/kg/injection, schedule: Q04DX003 (ip), vehicle: other) was 92 % of control. The T/C (dose: 400.0 mg/kg/injection, schedule: Q01DX009 (ip), vehicle: other) was 88 % of control and the T/C (dose: 400.0 mg/kg/injection, schedule: Q04DX003 (ip), vehicle: other) was 110 % of control.
In the case of `O=c1[n-]cc(F)c(=O)[nH]1.O=c1[n-]cc(F)c(=O)[nH]1.[NH2-].[NH2-].[Pt+4]`, the T/C [6] was 100 % of control, the T/C [7] was 120 % of control and 104 % of control and the T/C [8] was 120 % of control. For the same compound, the T/C [9] was 113 % of control and the T/C [10] was 100 % of control.
`N[C@H](C(=O)O)[C@H]1ON=C(Cl)[C@@H]1O` was tested, and the T/C (dose: 0.5 mg/kg/injection, schedule: Q01DX009 (ip), vehicle: saline with Tween-80) was 105 % of control, the T/C (dose: 1.0 mg/kg/injection, schedule: Q01DX009 (ip), vehicle: saline with Tween-80) was 105 % of control and the T/C (dose: 2.0 mg/kg/injection, schedule: Q01DX009 (ip), vehicle: saline with Tween-80) was 117 % of control. For the same compound, the T/C [1] was 160 % of control, the T/C (dose: 8.0 mg/kg/injection, schedule: Q01DX009 (ip), vehicle: saline) was 160 % of control and the T/C (dose: 12.5 mg/kg/injection, schedule: Q01DX009 (ip), vehicle: Klucel (hydroxypropylcellulose) (HPC)) was 239 % of control. For the same compound, the T/C [2] was 165 % of control, the T/C (dose: 12.5 mg/kg/injection, schedule: Q04DX003 (ip), vehicle: saline) was 96 % of control and the T/C (dose: 16.0 mg/kg/injection, schedule: Q01DX009 (ip), vehicle: saline) was 168 % of control. The T/C (dose: 25.0 mg/kg/injection, schedule: Q01DX009 (ip), vehicle: Klucel (hydroxypropylcellulose) (HPC)) was 195 % of control, the T/C [3] was 195 % of control and the T/C (dose: 25.0 mg/kg/injection, schedule: Q04DX003 (ip), vehicle: saline) was 111 % of control. For the same compound, the T/C (dose: 32.0 mg/kg/injection, schedule: Q01DX009 (ip), vehicle: saline) was 167 % of control, the T/C (dose: 44.0 mg/kg/injection, schedule: Q01DX009 (ip), vehicle: other) was 158 % of control and the T/C (dose: 50.0 mg/kg/injection, schedule: Q01DX009 (ip), vehicle: Klucel (hydroxypropylcellulose) (HPC)) was 188 % of control. For the same compound, the T/C [4] was 215 % of control, the T/C (dose: 50.0 mg/kg/injection, schedule: Q04DX003 (ip), vehicle: saline) was 111 % of control and the T/C (dose: 64.0 mg/kg/injection, schedule: Q01DX009 (ip), vehicle: saline) was 193 % of control. The T/C [11] was 206 % of control, the T/C [5] was 170 % of control and the T/C [6] was 110 % of control. For the same compound, the T/C (dose: 128.0 mg/kg/injection, schedule: Q01DX009 (ip), vehicle: saline) was 228 % of control, the T/C [8] was 90 % of control and the T/C (dose: 250.0 mg/kg/injection, schedule: Q01DX009 (ip), vehicle: saline) was 192 % of control. The T/C (dose: 256.0 mg/kg/injection, schedule: Q01DX009 (ip), vehicle: saline) was 270 % of control and the T/C [10] was 238 % of control.
For `Cc1ccc(N2CCN(C3=CCC(C(C)C)CC3)CC2)cc1Cl` (centres undefined), the T/C (dose: 100.0 mg/kg/injection, schedule: Q01DX001 (ip), vehicle: saline with Tween-80) was 105 % of control and the T/C (dose: 200.0 mg/kg/injection, schedule: Q01DX001 (ip), vehicle: saline with Tween-80) was 105 % of control.
For `Cn1c(CS)nc2ccccc21`, the T/C (dose: 12.5 mg/kg/injection, schedule: Q04DX003 (ip), vehicle: Klucel (hydroxypropylcellulose) (HPC)) was 104 % of control, the T/C (dose: 25.0 mg/kg/injection, schedule: Q04DX003 (ip), vehicle: Klucel (hydroxypropylcellulose) (HPC)) was 102 % of control and the T/C (dose: 50.0 mg/kg/injection, schedule: Q04DX003 (ip), vehicle: Klucel (hydroxypropylcellulose) (HPC)) was 105 % of control. For the same compound, the T/C [12] was 96 % of control.
In the case of `O=C1c2ccccc2C(=O)N1CNc1cccc(NCN2C(=O)c3ccccc3C2=O)c1`, the T/C (dose: 100.0 mg/kg/injection, schedule: Q01DX001 (ip), vehicle: saline) was 100 % of control, the T/C [7] was 104 % of control and the T/C (dose: 200.0 mg/kg/injection, schedule: Q01DX001 (ip), vehicle: saline) was 100 % of control. The T/C [9] was 104 % of control, the T/C (dose: 400.0 mg/kg/injection, schedule: Q01DX001 (ip), vehicle: saline) was 90 % of control and the T/C [10] was 100 % of control.
With `Nc1ncc([N+](=O)[O-])c(Cl)n1` the T/C [13] was 103 % of control and the T/C [14] was 111 % of control.
`NNc1nncn2c1cc1ccccc12` was tested, and the T/C [13] was 86 % of control and the T/C [14] was 107 % of control.
In the case of `COc1cccc(S(=O)(=O)c2ccc([N+](=O)[O-])c3nonc23)c1`, the T/C (dose: 12.5 mg/kg/injection, schedule: Q01DX009 (ip), vehicle: saline with Tween-80) was 111 % of control and the T/C (dose: 25.0 mg/kg/injection, schedule: Q01DX009 (ip), vehicle: saline with Tween-80) was 111 % of control.
In the case of `C(CC1CO1)CC1OC1CC1CO1` (centres undefined), the T/C (dose: 65.0 mg/kg/injection, schedule: Q04DX003 (ip), vehicle: saline) was 113 % of control, the T/C (dose: 67.0 mg/kg/injection, schedule: Q04DX003 (ip), vehicle: saline with Tween-80) was 113 % of control and the T/C (dose: 100.0 mg/kg/injection, schedule: Q04DX003 (ip), vehicle: saline with Tween-80) was 122 % of control. For the same compound, the T/C [7] was 109 % of control, the T/C (dose: 150.0 mg/kg/injection, schedule: Q04DX003 (ip), vehicle: saline with Tween-80) was 181 % of control and the T/C (dose: 150.0 mg/kg/injection, schedule: Q04DX003 (ip), vehicle: saline) was 154 % of control. The T/C (dose: 225.0 mg/kg/injection, schedule: Q04DX003 (ip), vehicle: saline with Tween-80) was 181 % of control.
`c1ccc(CSSCc2ccccc2)cc1` was tested, and the T/C (dose: 75.0 mg/kg/injection, schedule: Q01DX009 (ip), vehicle: Klucel (hydroxypropylcellulose) (HPC)) was 104 % of control, the T/C [11] was 90 % of control and the T/C [12] was 100 % of control. The T/C (dose: 150.0 mg/kg/injection, schedule: Q01DX009 (ip), vehicle: Klucel (hydroxypropylcellulose) (HPC)) was 100 % of control, the T/C (dose: 200.0 mg/kg/injection, schedule: Q01DX009 (ip), vehicle: Klucel (hydroxypropylcellulose) (HPC)) was 86 % of control and the T/C (dose: 200.0 mg/kg/injection, schedule: Q04DX003 (ip), vehicle: Klucel (hydroxypropylcellulose) (HPC)) was 95 % of control. For the same compound, the T/C (dose: 300.0 mg/kg/injection, schedule: Q01DX009 (ip), vehicle: Klucel (hydroxypropylcellulose) (HPC)) was 90 % of control and the T/C (dose: 400.0 mg/kg/injection, schedule: Q04DX003 (ip), vehicle: Klucel (hydroxypropylcellulose) (HPC)) was 95 % of control.
